{"source": "patent US12195413B2", "about": "“Ethynyl derivatives” (Hoffmann-La Roche Inc., priority 2015, dated 2025)", "assay": "rat Vogel conflict drinking test", "type": "in vivo", "data": [{"smiles": "CN1C(=O)N(c2ccc(C#Cc3ccccc3)cn2)[C@@H]2CC[C@@H]21", "note": "[Example 1, (−)-(1S,5R)-2-methyl-4-(5-(phenylethynyl)pyridin-2-yl)-2,4-diazabicyclo[3.2.0]heptan-3-one]", "values": [{"measurement": "anxiolytic activity, minimal effective dose", "value": 0.1, "unit": "mg/kg"}]}]}
